Data taken from US8198284B2, “Treatment of neurodegenerative disorders with thiourea compounds” (National Health Research Institutes, priority 2008, dated 2012).

What was measured:
Assay type in all cases: cell-based
[1] = test system: Microglia; assay: Enhancement of microglial Aβ clearance and phagocytosis in vitro; conditions: n=6, p<0.001
Description: Compounds were evaluated for their efficacy in enhancing microglial phagocytosis of Aβ (or Aβ clearance). […] Lipopolysaccharide (LPS) at 10 ng/mL was added as a positive control, which is known to increase Aβ uptake. The culture medium was subjected to Western blotting for evaluating residual Aβ left in the medium. The mean values of fluorescent intensity measured by flow cytometer were compared between cells pretreated with the test compound and the ones in non-treated controls.

[2] = test system: COX-2; assay: Anti-inflammatory activity: LPS-induced COX-2 expression (Western blotting)
Description: (§1) Compounds were evaluated for their efficacy in suppressing microglial immune activation by measuring their potency against LPS-induced expression of iNOS and COX-2 and IL-6 secretion. Microglia and Raw 264.7 cells (a microglia-like cell line) were pretreated with a test compound at various doses for 1 hr followed by 24 hr treatment of LPS (10 ng/ml). Cell lysates were subjected to Western blotting for iNOS and COX-2 evaluation. IL-6 secretion was measured from resulting culture medium by ELISA.

[3] = test system: IL-6; assay: Anti-inflammatory activity: LPS-induced IL-6 secretion (ELISA)
Description: as §1

[4] = test system: iNOS; assay: Anti-inflammatory activity: LPS-induced iNOS expression (Western blotting)
Description: as §1

[5] = test system: Hippocampal organotypic cultures; assay: Neuro-protection against LPS toxicity in hippocampal organotypic cultures; conditions: pre-treatment, then LPS 10 ng/mL for 24 hr; Western blotting
Description: Compounds were evaluated for their efficacy in suppressing microglia-mediated neurotoxicity. Hippocampal organotypic cultures were established to serve as an ex vivo model for evaluation of hippocampal functions. Pre-treatment of the cultures with a test compound was followed by addition of LPS (10 ng/mL) for 24 hr. Hippocampal tissues were harvested and subjected to Western blotting for measuring synaptophysin and post synaptic density protein (PSD)95 levels, the indications for neuronal synatic functions.

[6] = dose dependent, β-actin unchanged

IC50 ([2]; Mus musculus, RAW264.7, 1 hr pretreatment, then LPS 10 ng/ml for 24 hr, microglia and Raw 264.7 cells, read-out: Effective dose to show at least 50% suppression (IC50) for COX-2): 50 µM
IC50 ([3]; 1 hr pretreatment, then LPS 10 ng/ml for 24 hr, secretion by microglia, read-out: Effective dose to show at least 50% suppression (IC50) for IL-6): 20 µM
IC50 ([4]; Mus musculus, RAW264.7, 1 hr pretreatment, then LPS 10 ng/ml for 24 hr, microglia and Raw 264.7 cells, read-out: Effective dose to show at least 50% suppression (IC50) for iNOS): 1 µM
Structure (SMILES): NC(=S)Nc1cccc(OCCCCCNC(=S)Nc2cccc3ccccc23)c1 [Compound 1, 1-naphthalen-1-yl-3-[5-(3-thioureido-phenoxy)-pentyl]-thiourea]
increase of Aβ uptake as compared to the controls ([1]; compound at 10 μM): approximately 29%
increase of Aβ uptake as compared to the controls ([1]; compound at 20 μM): ~44%
increase of Aβ uptake as compared to the controls ([1]; compound at 50 μM): ~128%
LPS-induced COX-2 expression [2, 6]: significant suppression
LPS-induced IL-6 secretion by microglia ([3]; dose dependent): inhibited
LPS-induced iNOS expression [4, 6]: significant suppression
LPS-induced reduction of PSD95 level [5]: prevented LPS-induced reduction
LPS-induced reduction of synaptophysin level [5]: prevented LPS-induced reduction
